Experimental data: the Kinase Knowledgebase extract (Sharma et al. 2016)

Target: EGFR (Human), P00533 [T790M/L858R]
Conditions: nci-h1975

EGFR (Human), P00533 [T790M/L858R], sequence (P00533 whole entry T790M/L858R, looked up): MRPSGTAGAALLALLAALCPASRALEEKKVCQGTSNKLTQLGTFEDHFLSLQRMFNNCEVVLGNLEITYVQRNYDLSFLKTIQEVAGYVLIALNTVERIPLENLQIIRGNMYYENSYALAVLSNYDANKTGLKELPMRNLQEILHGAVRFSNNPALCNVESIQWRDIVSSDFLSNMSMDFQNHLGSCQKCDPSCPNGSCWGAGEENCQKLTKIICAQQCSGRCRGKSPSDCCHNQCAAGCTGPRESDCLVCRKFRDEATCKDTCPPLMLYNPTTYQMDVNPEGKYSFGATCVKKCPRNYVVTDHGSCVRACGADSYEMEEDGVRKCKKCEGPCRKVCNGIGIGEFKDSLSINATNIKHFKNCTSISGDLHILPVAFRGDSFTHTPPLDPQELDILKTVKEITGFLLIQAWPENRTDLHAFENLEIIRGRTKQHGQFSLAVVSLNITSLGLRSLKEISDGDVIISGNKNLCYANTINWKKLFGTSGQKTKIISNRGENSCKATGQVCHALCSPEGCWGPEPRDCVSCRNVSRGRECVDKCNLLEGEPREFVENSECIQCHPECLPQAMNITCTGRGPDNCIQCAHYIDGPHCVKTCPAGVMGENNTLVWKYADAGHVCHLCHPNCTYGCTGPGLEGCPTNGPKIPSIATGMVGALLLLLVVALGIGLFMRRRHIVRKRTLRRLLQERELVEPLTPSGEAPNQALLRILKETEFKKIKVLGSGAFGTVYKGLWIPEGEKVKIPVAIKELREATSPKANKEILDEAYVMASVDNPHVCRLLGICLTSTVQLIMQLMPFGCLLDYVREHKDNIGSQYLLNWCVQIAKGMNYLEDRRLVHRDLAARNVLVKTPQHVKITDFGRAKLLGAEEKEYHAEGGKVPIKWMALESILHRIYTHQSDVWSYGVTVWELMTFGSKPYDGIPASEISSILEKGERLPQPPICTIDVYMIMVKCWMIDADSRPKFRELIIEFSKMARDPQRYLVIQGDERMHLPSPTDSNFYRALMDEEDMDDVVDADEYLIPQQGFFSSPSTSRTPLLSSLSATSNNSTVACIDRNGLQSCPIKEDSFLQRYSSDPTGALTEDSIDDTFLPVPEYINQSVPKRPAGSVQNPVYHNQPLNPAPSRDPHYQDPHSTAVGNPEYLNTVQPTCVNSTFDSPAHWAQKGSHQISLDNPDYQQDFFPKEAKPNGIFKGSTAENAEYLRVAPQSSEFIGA

Structure (SMILES) | EC50 [nM]
CC[C@@H](C)n1nc(N2CC3(COC3)C2)c2cnc(Nc3ccnc(N4CC[C@@H](O)[C@@H](F)C4)n3)cc21 | 149
CC(C)n1nc(N2CCC2)c2cnc(Nc3ccnc(-c4cnn(S(=O)(=O)C5CC5)c4)n3)cc21 | 158
CCC(C)n1nc(N2CC[C@@H](O)C2)c2cnc(Nc3ccnc(N4CCC(S(C)(=O)=O)CC4)n3)cc21 (stereo not given in full) | 1110
CC(C)n1nc(NCC(N)=O)c2cnc(Nc3ccnc(-c4cnn(S(=O)(=O)C5CC5)c4)n3)cc21 | 5440
CCC(C)n1nc(N2CC3(COC3)C2)c2cnc(Nc3ccnc(N4CCC(C)(O)CC4)n3)cc21 (stereo not given) | 881
CC(C)n1nc(NCCS(C)(=N)=O)c2cnc(Nc3ccnc(-c4cnn(S(=O)(=O)C5CC5)c4)n3)cc21 (stereo not given) | > 10000
CC(C)n1nc(N2CC(C(C)(C)C#N)C2)c2cnc(Nc3ccnc(-c4cnn(S(=O)(=O)C5CC5)c4)n3)cc21 | 1380
CC(C)n1nc(NCCO)c2cnc(Nc3ccnc(-c4cnn(S(=O)(=O)C5CC5)c4)n3)cc21 | 877
CC(n1nc(N2CC[C@@H](O)C2)c2cnc(Nc3ccnc(N4CCC(C)(O)CC4)n3)cc21)C(F)(F)F (stereo not given in full) | 901
CC(C)n1nc(N(C)CC(O)CO)c2cnc(Nc3ccnc(-c4cnn(S(=O)(=O)C5CC5)c4)n3)cc21 (stereo not given) | 945
CC(C)n1nc(N)c2cnc(Nc3ccnc(-c4cnn(S(=O)(=O)C5CC5)c4)n3)cc21 | 247
CNC(=O)C1CN(c2nn(C(C)C)c3cc(Nc4ccnc(-c5cnn(S(=O)(=O)C6CC6)c5)n4)ncc23)C1 | 650
CC(C)n1nc(N2CC[C@H](O)C2)c2cnc(Nc3ccnc(-c4cnn(S(=O)(=O)C5CC5)c4)n3)cc21 | 201
CC(C)n1nc(N2CCOCC2)c2cnc(Nc3ccnc(-c4cnn(S(=O)(=O)C5CC5)c4)n3)cc21 | 266
CC(C)n1nc(N2CC[C@@H](CO)C2)c2cnc(Nc3ccnc(-c4cnn(S(=O)(=O)C5CC5)c4)n3)cc21 | 162
CC[C@@H](C)n1nc(N2CC[C@@H](O)C2)c2cnc(Nc3ccnc(N4CCC5(CC4)CNC(=O)CO5)n3)cc21 | 9130
CC(n1nc(N2CCNC2=O)c2cnc(Nc3ccnc(N4CCC(C)(O)CC4)n3)cc21)C(F)(F)F (stereo not given) | 1070
CC(n1nc(N2CC3(COC3)C2)c2cnc(Nc3ccnc(N4CCC(C)(O)CC4)n3)cc21)C(F)(F)F (stereo not given) | 3290
CCN1CCN(c2nn(C(C)C)c3cc(Nc4ccnc(-c5cnn(S(=O)(=O)C6CC6)c5)n4)ncc23)CC1 | 1010
CC(C)Nc1nn(C(C)C)c2cc(Nc3ccnc(-c4cnn(S(=O)(=O)C5CC5)c4)n3)ncc12 | 951
CCC(C)n1nc(N2CCCC2=O)c2cnc(Nc3ccnc(N4CCC(C)(O)CC4)n3)cc21 (stereo not given) | 569
CC[C@H](C)n1nc(N2CC3(COC3)C2)c2cnc(Nc3ccnc(N4CC[C@@H](O)[C@@H](F)C4)n3)cc21 | 348
CC(C)n1nc(N2CC3(COC3)C2)c2cnc(Nc3ccnc(-c4cnn(S(=O)(=O)C5CC5)c4)n3)cc21 | 421
CC(C)n1nc(NCC(C)(C)O)c2cnc(Nc3ccnc(-c4cnn(S(=O)(=O)C5CC5)c4)n3)cc21 | 1200
CC(C)n1nc(N2CC[C@@H](O)C2)c2cnc(Nc3ccnc(-c4cnn(S(=O)(=O)C5CC5)c4)n3)cc21 | 190
CC(C)NC(=O)C1CN(c2nn(C(C)C)c3cc(Nc4ccnc(-c5cnn(S(=O)(=O)C6CC6)c5)n4)ncc23)C1 | 825
CC(C)n1nc(N2CC(C#N)CC2=O)c2cnc(Nc3ccnc(N4CCC(C)(O)CC4)n3)cc21 (stereo not given) | 1100

Structure (SMILES) | EC50 [nM]
CC(C)n1nc(NCC(F)(F)F)c2cnc(Nc3ccnc(-c4cnn(S(=O)(=O)C5CC5)c4)n3)cc21 | > 10000
CC(C)n1nc(N2CC3CCC(C2)O3)c2cnc(Nc3ccnc(-c4cnn(S(=O)(=O)C5CC5)c4)n3)cc21 | 1210
CC(O)C1CN(c2nn(C(C)C)c3cc(Nc4ccnc(-c5cnn(S(=O)(=O)C6CC6)c5)n4)ncc23)C1 (stereo not given) | 266
CC(C)n1nc(N2CC(F)(F)C2)c2cnc(Nc3ccnc(-c4cnn(S(=O)(=O)C5CC5)c4)n3)cc21 | 312
CCC(C)n1nc(N2CC[C@@H](O)C2)c2cnc(Nc3ccnc(N4CCC(CC#N)(OC)CC4)n3)cc21 (stereo not given in full) | 1470
CC(C)n1nc(N2CCS(=O)(=O)CC2)c2cnc(Nc3ccnc(-c4cnn(S(=O)(=O)C5CC5)c4)n3)cc21 | 2020
COCCNC(=O)C1CN(c2nn(C(C)C)c3cc(Nc4ccnc(-c5cnn(S(=O)(=O)C6CC6)c5)n4)ncc23)C1 | 1450
CC[C@H](C)n1nc(N2CC[C@H](O)C2)c2cnc(Nc3ccnc(N4CC[C@](C)(O)[C@H](F)C4)n3)cc21 | 371
CC(C)n1nc(N2CC(C(=O)N(C)C)C2)c2cnc(Nc3ccnc(N4CCC(O)C(C)(C)C4)n3)cc21 (stereo not given) | 348
CCC(C)n1nc(N2CC(C(C)O)C2)c2cnc(Nc3ccnc(-c4cnn(S(=O)(=O)C5CC5)c4)n3)cc21 (stereo not given) | 537
CC1CN(c2nn(C(C)C)c3cc(Nc4ccnc(-c5cnn(S(=O)(=O)C6CC6)c5)n4)ncc23)C(=O)N1 (stereo not given) | 377
CCS(=O)(=O)n1cc(-c2nccc(Nc3cc4c(cn3)c(NC3COC3)nn4C(C)C)n2)cn1 | 921
CCC(C)n1nc(N2CC3(COC3)C2)c2cnc(Nc3ccnc(-c4cnn(S(=O)(=O)C5CC5)c4)n3)cc21 (stereo not given) | 216
CCS(=O)(=O)n1cc(-c2nccc(Nc3cc4c(cn3)c(N3CC(C(=O)N(C)C)C3)nn4C(C)C)n2)cn1 | 236
CC(C)n1nc(N2CC[C@H](N)C2=O)c2cnc(Nc3ccnc(N4CCC(C)(O)CC4)n3)cc21 | 9730
CC(C)n1nc(NCCC(N)=O)c2cnc(Nc3ccnc(-c4cnn(S(=O)(=O)C5CC5)c4)n3)cc21 | 3970
CC(C)n1nc(N2CC3(C2)CS(=O)(=O)C3)c2cnc(Nc3ccnc(N4CCC(C)(O)CC4)n3)cc21 | 3090
CC(C)n1nc(N2C[C@H](O)[C@@H](F)C2)c2cnc(Nc3ccnc(-c4cnn(S(=O)(=O)C5CC5)c4)n3)cc21 | 240
CC(C)n1nc(N2CC(CC#N)C2)c2cnc(Nc3ccnc(-c4cnn(S(=O)(=O)C5CC5)c4)n3)cc21 | 184
CC(C)n1nc(N2CC[C@@H](O)C2)c2cnc(Nc3ccnc(N4CCC(C)(O)CC4)n3)cc21 | 831
CC[C@@H](C)n1nc(N2CC(C(C)(C)O)C2)c2cnc(Nc3ccnc(N4CC[C@@H](O)[C@@H](F)C4)n3)cc21 | 334
CC(C)n1nc(N2CC(C(=O)N3CC4CCC(C3)O4)C2)c2cnc(Nc3ccnc(-c4cnn(S(=O)(=O)C5CC5)c4)n3)cc21 | 283
CC(C)n1nc(N2CC(O)C2)c2cnc(Nc3ccnc(-c4cnn(S(=O)(=O)C5CC5)c4)n3)cc21 | 1120
CCN1CCN(c2nn(C(C)C)c3cc(Nc4ccnc(-c5cnn(S(=O)(=O)C6CC6)c5)n4)ncc23)C1=O | 929
CC(C)n1nc(N2CCCC2)c2cnc(Nc3ccnc(N4CCC(O)C(C)(C)C4)n3)cc21 (stereo not given) | 499
CC(C)n1nc(N2CCC(C(=O)N(C)C)C2)c2cnc(Nc3ccnc(-c4cnn(S(=O)(=O)C5CC5)c4)n3)cc21 (stereo not given) | 163
CC(C)n1nc(NC(C)(C)C)c2cnc(Nc3ccnc(-c4cnn(S(=O)(=O)C5CC5)c4)n3)cc21 | 4620

Structure (SMILES) | EC50 [nM]
CCC(C)n1nc(N2CCCC2=O)c2cnc(Nc3ccnc(N4CC[C@@H](O)[C@@H](F)C4)n3)cc21 (stereo not given in full) | 300
CC(C)n1nc(N2CC(C(N)=O)C2)c2cnc(Nc3ccnc(-c4cnn(S(=O)(=O)C5CC5)c4)n3)cc21 | 938
CC(C)n1nc(N2CCOCC2)c2cnc(Nc3ccnc(NCC(C)(C)S(C)(=O)=O)n3)cc21 | 1260
CC(C)n1nc(N2CC(C(C)(C)O)C2)c2cnc(Nc3ccnc(-c4cnn(S(=O)(=O)C5CC5)c4)n3)cc21 | 423
CC(C)Oc1nn(C(C)C)c2cc(Nc3ccnc(-c4cnn(S(=O)(=O)C5CC5)c4)n3)ncc12 | 3590
CC(C)n1nc(N[C@H]2CCOC2)c2cnc(Nc3ccnc(-c4cnn(S(=O)(=O)C5CC5)c4)n3)cc21 | 373
CC(C)n1nc(N2CC(C)(CO)C2)c2cnc(Nc3ccnc(-c4cnn(S(=O)(=O)C5CC5)c4)n3)cc21 | 620
CCS(=O)(=O)n1cc(-c2nccc(Nc3cc4c(cn3)c(N3CC(CO)C3)nn4C(C)C)n2)cn1 | 397
CC(C)n1nc(N2CC3(C2)C[S+]([O-])C3)c2cnc(Nc3ccnc(N4CCC(C)(O)CC4)n3)cc21 | 3910
CCC(C)n1nc(N2CCNC(=O)C2)c2cnc(Nc3ccnc(N4CCC(C)(O)CC4)n3)cc21 (stereo not given) | 1760
CC(C)n1nc(N2CC[C@@H](N)C2=O)c2cnc(Nc3ccnc(N4CCC(C)(O)CC4)n3)cc21 | 8120
CC(C)n1nc(N[C@@H]2CCOC2)c2cnc(Nc3ccnc(-c4cnn(S(=O)(=O)C5CC5)c4)n3)cc21 | 775
CC(C)n1nc(N2CCC3(CCNC3=O)C2)c2cnc(Nc3ccnc(-c4cnn(S(=O)(=O)C5CC5)c4)n3)cc21 (stereo not given) | 740
CCC(C)n1nc(N2CC[C@@H](O)C2)c2cnc(Nc3ccnc(N4CC[C@H](O)[C@H](F)C4)n3)cc21 (stereo not given in full) | 263
CC(C)n1nc(N2CC(C#N)C2)c2cnc(Nc3ccnc(-c4cnn(S(=O)(=O)C5CC5)c4)n3)cc21 | 144
CC(C)n1nc(NC(=O)C(C)(C)O)c2cnc(Nc3ccnc(-c4cnn(S(=O)(=O)C5CC5)c4)n3)cc21 | 2080
COC1CCN(c2nccc(Nc3cc4c(cn3)c(N3CCCC3)nn4C(C)C)n2)CC1 | 380
CC(C)n1nc(N2CC[S+]([O-])CC2)c2cnc(Nc3ccnc(-c4cnn(S(=O)(=O)C5CC5)c4)n3)cc21 | 835
CC(C)n1nc(N2CCOCC2)c2cnc(Nc3ccnc(-c4cnn(CC5CC5)c4)n3)cc21 | 1840
CC(C)n1nc(N2CC(O)(CO)C2)c2cnc(Nc3ccnc(-c4cnn(S(=O)(=O)C5CC5)c4)n3)cc21 | 660
CC[C@@H](C)n1nc(N2CC3(COC3)C2)c2cnc(Nc3ccnc(OCC(C)(C)S(C)(=O)=O)n3)cc21 | 1240
CC(C)n1nc(N2CC(C)(O)C2)c2cnc(Nc3ccnc(-c4cnn(S(=O)(=O)C5CC5)c4)n3)cc21 | 289
CC(C)n1nc(N2CCN(C)C2=O)c2cnc(Nc3ccnc(-c4cnn(S(=O)(=O)C5CC5)c4)n3)cc21 | > 10000
CC(C)n1nc(N2CC(N3CCOCC3)C2)c2cnc(Nc3ccnc(-c4cnn(S(=O)(=O)C5CC5)c4)n3)cc21 | 432
CC(C)n1nc(NC2COC2)c2cnc(Nc3ccnc(-c4cnn(S(=O)(=O)C5CC5)c4)n3)cc21 | 167
CCC(C)n1nc(N2CCNC2=O)c2cnc(Nc3ccnc(N4CC[C@H](O)[C@H](F)C4)n3)cc21 (stereo not given in full) | 208
